Experiment [1] deals with B16. Kind of experiment: Cytotoxicity against mouse B16 cells by MTT assay. The format is functional, cell-based. Background: Tetrazolium dyes change colour on reduction, which living cells bring about.
In the next experiment the test system is HeLa. Kind of experiment: Cytotoxicity against human HeLa cells by MTT assay. Format: functional, cell-based.
The subject of experiment [2] is L1210. Kind of experiment: Cytotoxicity against mouse L1210 cells by MTT assay. Format: functional, cell-based.
In experiment [3] the test system is B16. Kind of experiment: Ratio of IC50 for mouse B16 cells in presence of SPD to IC50 for mouse B16 cells. The format is functional.
The test system of experiment [4] is L1210. Kind of experiment: Ratio of IC50 for mouse L1210 cells to IC50 for mouse L1210 cells in presence of […]. Format: functional.
For experiment [5], the system named is B16. Kind of experiment: Cell cycle arrest in B16 cells by accumulation at S phase at 0.1 uM after 24 hrs. The format is functional, Mus musculus.
In experiment [6] the test system is B16. Kind of experiment: Induction of apoptosis in B16 cells at 0.1 uM after 24 hrs. Format: functional, Mus musculus.
For experiment [7], the system named is B16. Kind of experiment: Cell cycle arrest in B16 cells by accumulation at G2 phase at 0.1 uM after 24 hrs. The format is functional, Mus musculus.
The subject of experiment [8] is B16. Kind of experiment: Cell cycle arrest in B16 cells by accumulation at G1 phase at 0.1 uM after 24 hrs. Format: functional, Mus musculus.
The test system of experiment [9] is B16. Kind of experiment: Cell cycle arrest in B16 cells by accumulation at S phase at 1 uM after 24 hrs. Format: functional, Mus musculus.
Experiment [10] relates to B16. Kind of experiment: Cell cycle arrest in B16 cells by accumulation at G1 phase at 1 uM after 24 hrs. Format: functional, Mus musculus.
In experiment [11] the test system is B16. Kind of experiment: Cell cycle arrest in B16 cells by accumulation at G2 phase at 1 uM after 24 hrs. Format: functional, Mus musculus.
Experiment [12] concerns B16. Kind of experiment: Induction of apoptosis in B16 cells at 1 uM after 24 hrs. The format is functional, Mus musculus.
Experiment [13] deals with FL5.12. Kind of experiment: Induction of apoptosis in BALB/c mouse FL5.12A pro-B cells in the presence of 0.1 ng/mL IL3. Format: functional.
Experiment [14] has as its system FL5.12. Kind of experiment: Induction of apoptosis in BALB/c mouse FL5.12A pro-B cells in the presence of 2 ng/mL IL3. Format: functional.
Experiment [15] deals with FL5.12. Kind of experiment: Induction of apoptosis in BALB/c mouse FL5.12A pro-B cells. The format is functional.

Bounds are passed on as bounds.

Broadly, the IC50 is the concentration that inhibits the measured activity by half. Higher therefore signals a need for much substance. Turning to `CCCCNCc1ccc2cc(OC)ccc2c1`, the IC50 in the experiment on B16 [1] amounted to 15 µM; in the experiment with HeLa it was 12.5 µM.

Consider `CCCCNCc1ccc(-c2ccccc2)cc1`, for which the IC50 in the experiment on B16 [1] turned out to be 10.8 µM; in the experiment on HeLa it was 10.9 µM.

`Cl.NCCCCNCCCCNCc1ccc2ccccc2c1`: the IC50 in the experiment on B16 [1] came to 1.66 µM; in the experiment on L1210 [2], 16.9 µM; in the experiment on HeLa, 1.9 µM. In addition, the “Ratio IC50” value in the experiment with B16 [3] is reported as 3.8; in the experiment with L1210 [4] it was 2.08.

Turning to `Cl.NCCCCNCCCCNCc1ccc(-c2ccccc2)cc1`, the Activity in the experiment on B16 [5] was determined as 40.37%; with B16 [6], 17.35%; with B16 [7], 10.45%; with B16 [8], 49.18%; in the experiment with B16 [9], 68.83%; in the experiment with B16 [10], 39.13%. Besides, the Activity with B16 [11] amounted to 0.04%; with B16 [12] it was 42.47%. The IC50 is 1.22 µM in the experiment on B16 [1], 9.98 µM with L1210 [2] and 3.61 µM in the experiment on HeLa. Moreover, the figures for the “Ratio IC50” value in the experiment on B16 [3] and with L1210 [4] were 2.4 and 2.05, respectively.

On to `Cl.NCCCCNCCCCNCC1CCCc2ccccc21` (stereo not given), for which the IC50 with B16 [1] amounted to 6.96 µM; in the experiment on L1210 [2] it was 14.8 µM. Also, the “Ratio IC50” value in the experiment on B16 [3] worked out at 1.7; in the experiment on L1210 [4] it was 1.63.

For `Cl.c1ccc2c(CNCCCCNCCCCN3CCNCC3)cccc2c1`, the IC50 in the experiment on B16 [1] was 5.46 µM; in the experiment on L1210 [2], above 50 µM; in the experiment with HeLa, 3.6 µM. The figures for the “Ratio IC50” value in the experiment with B16 [3] and in the experiment on L1210 [4] were 2.3 and above 1, respectively.

`Cl.c1ccc2cc(CNCCCCNCCCCN3CCNCC3)ccc2c1`: the IC50 in the experiment with B16 [1] was 2.89 µM; in the experiment with L1210 [2] it was 35.8 µM; with HeLa it was 3.7 µM. Besides, the “Ratio IC50” value worked out at 9 with B16 [3] and 1.53 with L1210 [4].

In the case of `COc1ccc2cc(CNCCCCNCCCCN3CCNCC3)ccc2c1.Cl`, the IC50 in the experiment with B16 [1] was above 50 µM; in the experiment on L1210 [2] it was 15.1 µM; in the experiment on HeLa, 11.3 µM. Moreover, the “Ratio IC50” value with L1210 [4] is recorded as 1.76.

With `Cl.c1ccc(-c2ccc(CNCCCCNCCCCN3CCNCC3)cc2)cc1`, the IC50 is above 50 µM in the experiment with B16 [1], 20.3 µM in the experiment with L1210 [2] and 26.8 µM in the experiment on HeLa. The “Ratio IC50” value in the experiment with L1210 [4] is listed as 2.71.

Consider `Cl.NCCCCNCCCCNCc1cccc2ccccc12`, for which the IC50 in the experiment on B16 [1] stood at 2.33 µM; in the experiment on L1210 [2], 8.04 µM; with HeLa, 1.38 µM. The “Ratio IC50” value is on record as 2.5 with B16 [3] and 1.58 with L1210 [4].

In the case of `Cl.c1ccc2c(CNCCCCNCCCCN3CCNCC3)c3ccccc3cc2c1`, the values for the IC50 in the experiment with B16 [1], with L1210 [2] and in the experiment with HeLa were 6.07 µM, above 50 µM and 9.58 µM, respectively. The entries for the “Ratio IC50” value in the experiment with B16 [3] and with L1210 [4] were 2 and above 2.5, respectively.

As for `Cl.NCCCCNCCCCNCc1c2ccccc2cc2ccccc12`, the Activity with B16 [5] stood at 11.29%; in the experiment with B16 [6], 12.49%; in the experiment with B16 [7] it was 10.72%; in the experiment on B16 [8], 77.99%; with B16 [9], 10.1%; in the experiment on B16 [10] it was 80.19%. Moreover, the Activity is given as 10.1% with B16 [11] and 37.26% in the experiment with B16 [12]. Besides, the IC50 was 0.31 µM in the experiment with B16 [1], 4.8 µM with L1210 [2] and 1.1 µM in the experiment with HeLa. The “Ratio IC50” value is given as 6.6 in the experiment with B16 [3] and 1.33 in the experiment with L1210 [4].

On to `COc1ccc2cc(CNCCCCNCCCCN)ccc2c1.Cl`, for which the IC50 came to 4.88 µM in the experiment with B16 [1], 15.1 µM with L1210 [2] and 1.2 µM in the experiment with HeLa. For the same compound, the figures for the “Ratio IC50” value in the experiment with B16 [3] and in the experiment on L1210 [4] were 3.6 and 2.69, respectively.

As for `N=C(N)NN` [PIMAGEDINE], the Activity in the experiment with FL5.12 [13] was 3%; in the experiment with FL5.12 [14] it was 5%; with FL5.12 [15], 80%.
